Assay: osmotic coefficient (dimensionless); mn = molality of the nth substance listed, in mol/kg
Conditions: 101 kPa, Liquid, Vapor pressure osmometer - Knauer K-7000

CCCCCCCC[n+]1ccn(C)c1.[Cl-] [1-methyl-3-octylimidazolium chloride] + O
Conditions	osmotic coefficient
313.15 K, m1 = 0.0346	1.05
313.15 K, m1 = 0.0491	1
313.15 K, m1 = 0.0809	0.816
313.15 K, m1 = 0.1329	0.727
313.15 K, m1 = 0.182	0.681
313.15 K, m1 = 0.2455	0.617
313.15 K, m1 = 0.2917	0.555
313.15 K, m1 = 0.3582	0.531
313.15 K, m1 = 0.4679	0.48
313.15 K, m1 = 0.5228	0.45
313.15 K, m1 = 0.6037	0.424
313.15 K, m1 = 0.7323	0.383
313.15 K, m1 = 0.8825	0.343
313.15 K, m1 = 1.072	0.317
313.15 K, m1 = 1.356	0.289
313.15 K, m1 = 1.771	0.266
323.15 K, m1 = 0.0419	1.1
323.15 K, m1 = 0.052	1.06
323.15 K, m1 = 0.0858	0.946
323.15 K, m1 = 0.1118	0.918
323.15 K, m1 = 0.182	0.726
323.15 K, m1 = 0.2455	0.675
323.15 K, m1 = 0.2917	0.633
323.15 K, m1 = 0.3582	0.587
323.15 K, m1 = 0.4679	0.54
323.15 K, m1 = 0.5228	0.498
323.15 K, m1 = 0.6037	0.464
323.15 K, m1 = 0.7323	0.424
323.15 K, m1 = 0.8825	0.384
323.15 K, m1 = 1.072	0.345
323.15 K, m1 = 1.356	0.31
323.15 K, m1 = 1.771	0.3
328.15 K, m1 = 0.0361	1.14
328.15 K, m1 = 0.0506	1.12
328.15 K, m1 = 0.0852	1.08
328.15 K, m1 = 0.1329	1.07
328.15 K, m1 = 0.1791	1.02
328.15 K, m1 = 0.2484	0.962
328.15 K, m1 = 0.2947	0.957
328.15 K, m1 = 0.3568	0.929
328.15 K, m1 = 0.468	0.906
328.15 K, m1 = 0.5243	0.875
328.15 K, m1 = 0.6052	0.844
328.15 K, m1 = 0.7352	0.753
328.15 K, m1 = 0.8826	0.689
328.15 K, m1 = 1.072	0.624
328.15 K, m1 = 1.359	0.556
328.15 K, m1 = 1.774	0.479

CCCC[N+]1(C)CCCC1.N#CN=C=[N-] [1-butyl-1-methylpyrrolidinium dicyanamide] + O
Conditions	osmotic coefficient
313.15 K, m1 = 0.0272	0.915
313.15 K, m1 = 0.0491	0.849
313.15 K, m1 = 0.0864	0.734
313.15 K, m1 = 0.1088	0.697
313.15 K, m1 = 0.1499	0.68
313.15 K, m1 = 0.1968	0.627
313.15 K, m1 = 0.3968	0.503
313.15 K, m1 = 0.5057	0.471
313.15 K, m1 = 0.7825	0.433
313.15 K, m1 = 0.9665	0.416
313.15 K, m1 = 1.474	0.373
323.15 K, m1 = 0.0272	0.982
323.15 K, m1 = 0.0512	0.879
323.15 K, m1 = 0.0928	0.855
323.15 K, m1 = 0.112	0.846
323.15 K, m1 = 0.1499	0.81
323.15 K, m1 = 0.1968	0.747
323.15 K, m1 = 0.2912	0.673
323.15 K, m1 = 0.3968	0.656
323.15 K, m1 = 0.5057	0.608
323.15 K, m1 = 0.7825	0.538
323.15 K, m1 = 0.9665	0.48
323.15 K, m1 = 1.488	0.405
328.15 K, m1 = 0.024	1.05
328.15 K, m1 = 0.0896	0.859
328.15 K, m1 = 0.1248	0.815
328.15 K, m1 = 0.2032	0.747
328.15 K, m1 = 0.2913	0.682
328.15 K, m1 = 0.4017	0.642
328.15 K, m1 = 0.5041	0.585
328.15 K, m1 = 0.7825	0.559
328.15 K, m1 = 0.973	0.498
328.15 K, m1 = 1.496	0.424
